Data set [1] concerns total HDAC activity in HCT116 cells. In words: Total HDACs enzymatic activity assay in treated cells. The format is cell-based, human. As to conditions: HCT116 cells treated 24 h. The procedure: Total HDACs enzyme activity was determined using the Boc-Lys(Ac)-AMC fluorometric HDAC activity assay kit (BioVision, Mountain View, CA, USA).
Another data set concerns the target recombinant human HDAC2 (Homo sapiens, UniProt Q92769). In words: HDAC biochemical assay (fluorogenic). Conditions: Class I, mean±SE.
The nature of data set [2]: Body weight and adverse effects in xenograft study. Conditions: HCT116 xenograft mice, oral daily treatment. The format is in vivo, nude mice. As for the experimental part: (A) Tumors were measured regularly and growth delay was calculated for treatment groups relative to control tumors (TGD). (B) Kaplan-Meier survival analysis was based on the tumor growth endpoint. (C) Inhibition of tumor growth curves represented a mean±SEM and percentage change in mean tumor volume (percent TGI). (D) Body weights were measured daily during the first week and then 2 times per week. The body weight ratio was calculated relative to the baseline measurement.
(§1) Once a tumor was palpable with the size of approximately 55 mm^3, mice were randomized into vehicle control and treatment groups (8 mice per group). Control mice received the vehicle (0.5% carboxymethyl cellulose +0.1% Tween 80). Tumors in all 3 groups were allowed to reach an endpoint volume of 1,200 mm^3.

Data set [3] relates to human HCT116 colorectal cancer xenograft. In words: HCT116 xenograft, tumor growth delay to 1,200 mm^3 endpoint. Type of data set: in vivo, nude mice. Conditions: for No. of CR (complete regression): 8 mice per group; for %TGD (tumor growth delay): [(T-C)/C]×100; for T-C: median TTE treated versus control. As for the experimental part:
The human HCT116 colorectal adenocarcinoma cells used for implantation were harvested during log phase growth and resuspended in phosphate-buffered saline at 5×10^7 cells/mL. Each mouse was injected s.c. in the right flank with 1.0×10^7 cells (0.2 mL cell suspension). Tumors were monitored twice weekly and then daily as their volumes approached 1,200 mm^3. Tumor size, in mm^3, was calculated from: where w = width and l = length in mm of the tumor. Tumor volume = (w^2×l)/2.
The logrank test was used to determine the statistical significance of the difference between the TTE values of two groups, except any NTR deaths. […] The two-tailed statistical analyses were conducted at P = 0.05. Kaplan-Meier plots show the percentage of animals remaining in the study versus time. The Kaplan-Meier plots use the same data set as the logrank test.
as §1

The next data set relates to HCT116 cells. In words: Western blot histone H3 and α-tubulin acetylation. As to conditions: 24 h. The format is cell-based, human. As for the experimental part:
For total lysate, cells were lysed with the 120 µL ice-cold lysis buffer [10 mmol/L Tris-HCl (pH 7.4), 150 mmol/L NaCl, 1 mmol/L EGTA, 1 mmol/L phenylmethylsulfonyl fluoride, 10 µg/mL aprotinin, 10 µg/mL leupeptin, 1 mM sodium orthovandate, 1 mM NaF, and 1% Triton X-100]. Cell lysates were centrifuged at 13,000 rpm for 30 min. For Western blot analysis, the amount of protein (40 µg) was separated by electrophoresis in a 10% or 15% polyacrylamide gel and transferred to a polyvinylidene difluoride (PVDF) membrane. After 1 h incubation at room temperature in PBS/5% nonfat milk, the membrane was washed with PBS/0.1% and incubated with the indicated antibodies at 4°C overnight. After washings with PBS/0.1% Tween 20, the corresponding secondary antibodies were applied to the membranes for 1 h at room temperature. The membranes were then washed with PBS/0.1% Tween 20 and the detection of signal was done with an enhanced chemiluminescence detection kit (Amersham, Buckinghamshire, UK).

Chain of recombinant human HDAC2 (Q92769 whole entry): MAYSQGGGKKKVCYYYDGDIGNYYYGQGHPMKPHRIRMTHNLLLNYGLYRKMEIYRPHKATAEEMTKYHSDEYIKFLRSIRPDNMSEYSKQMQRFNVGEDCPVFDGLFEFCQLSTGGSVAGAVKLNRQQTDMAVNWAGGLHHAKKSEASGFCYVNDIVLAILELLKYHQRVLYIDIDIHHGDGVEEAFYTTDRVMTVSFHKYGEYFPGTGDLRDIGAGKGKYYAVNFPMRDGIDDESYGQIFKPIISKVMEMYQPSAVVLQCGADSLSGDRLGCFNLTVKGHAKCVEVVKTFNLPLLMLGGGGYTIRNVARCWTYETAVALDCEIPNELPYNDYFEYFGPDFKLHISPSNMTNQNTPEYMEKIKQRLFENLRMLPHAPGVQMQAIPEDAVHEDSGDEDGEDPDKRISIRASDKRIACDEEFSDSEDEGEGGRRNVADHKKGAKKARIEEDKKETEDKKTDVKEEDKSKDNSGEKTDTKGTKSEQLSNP
Source text for recombinant human HDAC2: The HDACs in vitro activities of recombinant human HDAC 1, 2, 4, 6 and 8 (BPS Biosciences) were detected by fluorigenic release of 7-amino-4-methylcoumarin from substrate upon deacetylase enzymatic activity.

As to `O=C(C=Cc1ccc2c(c1)CCN2S(=O)(=O)c1ccccc1)NO` [MPT0E028, 3-(1-benzenesulfonyl-2,3-dihydro-1H-indol-5-yl)-N-hydroxy-acrylamide], the figures for the IC50 (in data set [1]; at recombinant human HDAC2) were 4430 ± 500 nM and 106 ± 23 nM, respectively. In data set [2], the “body weight and other adverse effects” value was “No significant difference in body weight or other adverse effects”. In addition, the results for the “No. of CR (complete regression)” value in data set [3] (50 mg/kg po qd), in data set [3] (100 mg/kg po qd) and in data set [3] (200 mg/kg po qd) were 0, 1 and 3, respectively. The entries for the “%TGD (tumor growth delay)” value in data set [3] (50 mg/kg po qd), in data set [3] (100 mg/kg po qd) and in data set [3] (200 mg/kg po qd) were 0%, 16% and 122%, respectively. For the same molecule, the figures for the T-C in data set [3] (50 mg/kg po qd), in data set [3] (100 mg/kg po qd) and in data set [3] (200 mg/kg po qd) were 0 days, 2.6 days and 20 days, respectively. The “Median TTE” value in data set [3] (100 mg/kg po qd to endpoint 1200 mm^3) was 19.2 days; in data set [3] (200 mg/kg po qd to endpoint 1200 mm^3), 36.9 days. In addition, the “histone H3 acetylation (western blot)” value in the data set with HCT116 cells was “induced stronger hyperacetylation of histone H3 than that of SAHA”.

(Values after paper PMC3425516 (PLoS ONE, 2012).)
